Laboratory results as given in patent US20240336661A1, “PEPTIDES DERIVED FROM RUMINOCOCCUS TORQUES” (University of Copenhagen, priority 2021, published 2024).

Tests used:
[1] = test system: human visceral white pre-adipocytes; assay: Thermogenesis/browning gene expression in human visceral white pre-adipocytes (q-PCR); format: cell-based; details: 15 nM, 14 days of differentiation
Method: (§1) FIG. 9. Exposure of recombinant RUCILP2 to human visceral white pre-adipocytes or murine inguinal white adipocytes causes up-regulation of the expression of genes involved in thermogenesis/browning. Upper panel: mRNA expression level of adipocyte differentiation marker genes including Ucp1, Pparγ1, Dio2, and Cox2 and brown adipocyte-selective genes including Cpt1b and Ebf2 on human white preadipocytes (HWP). Human white preadipocytes were cultured until 80% confluent and switched into differentiation media (with 0.3 ml/ml fetal calf serum, 8 ug/ml d-biotin, 0.5 ug/ml insulin, 400 ng/ml dexamethasone). The differentiation process to mature adipocytes was completed after 12-14 days. The treatment of RUCILP2 started from the third day of differentiation. Cells were harvested after 14 days of differentiation and the gene expressions were quantified by q-PCR. […] Statistical significance was determined by unpaired two-tailed Student's t test. *, p<0.05 vs 0 nM RUCILP2.
(§2) FIG. 28. […] Cells were harvested after 14 days of differentiation and the indicated genes were quantified by q-PCR. […] Cells were harvested after 6 days of differentiation and thermogenesis gene were quantified by q-PCR. […] Cells were harvested after 4 days of differentiation and expression of myogenesis genes were quantified by q-PCR. […] Statistical significance was determined by unpaired two-tailed Student's t test, *, p<0.05 […]

murine C2C12 myoblasts = assay: Myotube formation and myogenesis gene expression in C2C12 myoblasts; format: cell-based, mouse
Method: FIG. 12. […] The C2C12 myotubes were treated with indicated doses of RUCILP2 overnight and myotube images were collected at magnification, ×10.
FIG. 28. […] White preadipocytes from human visceral fat (C-12732, PromoCell) were cultured until 80% confluent and switched into differentiation media (with 0.3 ml/ml of fetal calf serum (FCS), 8 ug/ml of d-biotin, 0.5ug/ml of insulin, 400 ng/ml of dexamethasone) in the presence of 15 nM of 21-AABP2. The differentiation process to mature adipocytes was completed after 14 days. Cells were harvested after 14 days of differentiation and the indicated genes were quantified by q-PCR. Inguinal fat tissues from 6-week-old wild-type C57BL/6J female mice were dissected and washed with PBS, minced and digested for 1 hour at 37° C. in PBS containing 10 mM CaCl2, 2.4 U/ml dispase II (Roche) and 10 mg/ml collagenase D (Roche). After adding warm DMEM/F12 (1:1) with 10% FCS, digested tissue was filtered through a […] cell strainer and centrifuged at 600×g for 10 minutes. Pellet was resuspended by 40 ml DMEM/F12 (1:1) with 10% FCS and filtered through a […] cell strainer followed by centrifugation at 600×g for 10 minutes. Pelleted inguinal stromal vascular cells were grown to confluence and split onto 12-well plates. The cells were induced to differentiate by treatment with […], 0.5 mM isobutyl methyl xanthine for 2 days. After that, cells were maintained in […] for 4 days with medium change every other day. The cells were treated with 15 nM of 21-AABP2 every other day during 6 days of differentiation. Cells were harvested after 6 days of differentiation and thermogenesis gene were quantified by q-PCR. C2C12 myoblasts (CRL-1772, ATCC) were cultured until 80% confluent and switched into differentiation media (with 2% horse serum). The treatment with 21-AABP2 started from the second day of differentiation. Cells were harvested after 4 days of differentiation and expression of myogenesis genes were quantified by q-PCR. Data are presented as mean+/−SEM of one representative experiment done in biological triplicates. Statistical significance was determined by unpaired two-tailed Student's t test, *, p<0.05
FIG. 29. […] Representative images of myoblasts (CRL-1772, ATCC) at 24h of differentiation in the presence of phosphate buffered saline (PBS, blank) or 21-AABP2 (15 nM). Presented images were from one representative experiment done in biological triplicates.
C2C12 cells were seeded on 12-well plates under DMEM/F-12 medium (Dulbecco's Modified Eagle Medium/Nutrient Mixture F-12, Fisher Scientific, #11524436), supplemented with 10% FBS (Fetal Bovine Serum, Fisher Scientific, #11550356) and 1% Penicillin-Streptomycin (Fisher Scientific, #11548876). Cell cultures were maintained in a humidified chamber with 5% CO2 at 37° C., and culture media were changed every 2-3 days.
At approximately 80% confluence, 10% fetal bovine serum was replaced with 2% horse serum to induce C2C12 myoblast cells to differentiate into myotubes. Twenty-four hours later (day 1 of the differentiation), the cells were treated with recombinant RUCILP2 or commercial recombinant irisin (Sigma, #SRP8039-10UG and Phoenix pharmaceuticals, #067-29A) or saline. For integrin inhibitor treatment, cells were treated with 10 μM of CycloRGDyK (Selleckchem, #S7844) for 10 minutes and washed with PBS before treated with recombinant RUCILP2 or commercial recombinant irisin or saline. At day three, the cells were refreshed with the same media as day one. After treatments for six hours on day 3, C2C12 cells were harvested for qRT-PCR analysis.
C2C12 myoblasts were cultured until 80% confluent and switched into differentiation media (with 2% horse serum). The treatment with 21-AABP2 started from the second day of differentiation. Representative images of the formed myotubes at 24h of differentiation in the presence of PBS (blank) or 21-AABP2 (15 nM) were captured. […]

[2] = test system: murine inguinal white adipocytes; assay: Thermogenesis gene expression in murine inguinal adipocytes (q-PCR); format: cell-based, mouse; details: mouse inguinal preadipocytes, 15 nM every other day, 6 days
Method: as §1, §2

[3] = test system: rat insulinoma INS-1 cells; assay: Insulin release from INS-1 cells (ELISA); format: cell-based; details: 15 nM, 12 hours
Method: FIG. 30. Insulin release from the immortalized rat insulinoma INS-1 cells is increased following 21-AABP2 stimulation. INS-1 cells (832/13, ThermoFisher) were grown in RPM 1640 medium until a confluency of 70% was achieved and switched to RPM 1640 medium supplied with 15 nM of 21-AABP2 and incubated for 12 hours. The insulin concentration in the supernatant of cell culture medium was measured by MSD rat/mouse insulin ELISA kit. Data are presented as mean+/−SEM of one representative experiment done in biological triplicate. Statistical significance was determined by unpaired two-tailed Student's t test, *, p<0.05.
INS-1 cells were grown in RPMI 1640 medium (11875093, ThermoFisher Scientific) until a confluency of 70% was achieved and switched to RPMI 1640 medium supplied with 15 nM of 21-AABP2 and incubated for 12 hours. The insulin concentration in supernatant of cell culture medium was measured by MSD rat/mouse insulin ELISA kit (Merck Millipore).

## 21-AABP2: 21 amino acid trypsin cleaved fragment of RUCILP2, made recombinantly in E. coli (AETTYFVEVTAVDAAGNESVK; Ruminococcus torques)
[1]
  expression of genes involved in thermogenesis/browning: promotes expression
Murine C2C12 myoblasts; C2C12, 15 nM, 24h of differentiation
  myotube development: increases myotube development
Murine C2C12 myoblasts; C2C12, harvested after 4 days of differentiation
  expression of genes involved in myogenesis (Mymk, Caveolin-3): stimulates expression
[2]
  expression of key genes regulating thermogenesis: induces expression
[3]
  insulin release: increased
